Data reported in PMC6413085, “A Validated HPLC-MS/MS Assay for 14-O-[(4,6-Diaminopyrimidine-2-yl)thioacetyl] Mutilin in Biological Samples and Its Pharmacokinetic, Distribution and Excretion via Urine and Feces in Rats” (Molecules, 2019).

Assays:
[1] = Stability of DPTM in plasma, tissue homogenates, urine and feces (QC samples); assay type: physicochemical, rat
Procedure: Stability of DPTM and IS was examined by comparing the analytes’ concentrations in freshly prepared samples with those of samples maintained under different conditions, including the 24 h storage at room temperature, three freeze and thaw cycles, and storage at −70 °C for 4 weeks, respectively. Analyzing three levels of QC samples were used to assess the stability (accuracy and precision) with six replicates.
For the construction of calibration curves, 20 μL of each corresponding standard working solution (0.05, 0.2, 0.5, 1, 2, 5, 10, 20 and 40 μg/mL) was evaporated to dryness by nitrogen at 40 °C. The calibration standards (5, 20, 50, 100, 200, 500, 1000, 2000 and 4000 ng/mL) were prepared by adding 200 μL of blank plasma, various tissue homogenates (including heart, liver, spleen, lung, kidney, large intestine, small intestine, ileum, cecum, bladder, brain, jejunum and colon) or urine and feces to the residue, respectively. Quality control (QC) samples (10, 200 and 3000 ng/mL) were obtained by the same way as the calibration standards. All solutions were stored at −70 °C before use for no longer than 4 weeks.

[2] = Tissue distribution study in rats; assay type: in vivo, Sprague-Dawley rats; conditions: rat, 75 mg/kg; for highest level in cecum / highest level in jejunum / highest level in large intestine / highest level in lung / highest level in small intestine: within the first 24 h;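 on highest level in cecum: three values per tissue are for i.v. then i.m. then p.o. dosing in that order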;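 on highest level in jejunum: three values per tissue are for i.v. then i.m. then p.o. dosing in that order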;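 on highest level in large intestine: three values per tissue are for i.v. then i.m. then p.o. dosing in that order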;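 on highest level in lung: three values per tissue are for i.v. then i.m. then p.o. dosing in that order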
Procedure: We also successfully used the established LC-MS/MS method for detection of the concentration of DPTM in rat tissue homogenates. The quantification of DPTM used the specific standard curves in each corresponding bio-matrix. After i.v., i.m. and p.o. administration of 75 mg/kg DPTM, tissue distribution was investigated at 0.5, 4, 12 and 48 h by collecting the heart, liver, brain, spleen, lung, kidney, large intestine, small intestine, ileum, cecum, bladder, jejunum and colon. Tissue distribution study in rats was performed as described previously. Animals were divided into three groups (n = 12) and DPTM was administered via i.m., i.v. and p.o. with a single dose of 75 mg/kg. A series of heart, liver, spleen, lung, kidney, large intestine, small intestine, ileum, cecum, bladder, brain, jejunum and colon samples were collected before and at 0.5, 4, 12 and 48 h time points after administration and rinsed with phosphate buffer to remove the blood and feces, followed by weighing the wet weight and freezing at −70 °C until analysis. The concentrations of DPTM in rat various tissues were expressed in ng/g and calculated by equation: Ct = Cs × Vs/P, where Ct represented the tissue concentration (ng/g), Cs, Vs and P were the concentration (ng/mL), the volume (mL) and the weight (g) of the tissue samples, respectively.

C=CC1(C)CC(OC(=O)CSc2nc(N)cc(N)n2)C2(C)C(C)CCC3(CCC(=O)C32)C(C)C1O (stereo not drawn) [DPTM, 14-O-[(4,6-Diaminopyrimidine-2-yl)thioacetyl] mutilin]
Stability RE ([1]; Large intestine, 200 ng/mL, Long-term (−70 °C, 4 Weeks)): 2.2% | Stability RE ([1]; Large intestine, 200 ng/mL, Short-term (25 °C, 24 h)): 5.7% | Stability RE ([1]; Large intestine, 3000 ng/mL, Freeze-thaw Cycles): 3.1% | Stability RE ([1]; Large intestine, 3000 ng/mL, Long-term (−70 °C, 4 Weeks)): 3.5% | Stability RE ([1]; Large intestine, 3000 ng/mL, Short-term (25 °C, 24 h)): −0.9% | Stability RE ([1]; Liver, 10 ng/mL, Freeze-thaw Cycles): 3.3% | Stability RE ([1]; Liver, 10 ng/mL, Long-term (−70 °C, 4 Weeks)): 3.4% | Stability RE ([1]; Liver, 10 ng/mL, Short-term (25 °C, 24 h)): 2.9% | Stability RE ([1]; Liver, 200 ng/mL, Freeze-thaw Cycles): 3.4% | Stability RE ([1]; Liver, 200 ng/mL, Long-term (−70 °C, 4 Weeks)): 3.6% | Stability RE ([1]; Liver, 200 ng/mL, Short-term (25 °C, 24 h)): 3.3% | Stability RE ([1]; Liver, 3000 ng/mL, Freeze-thaw Cycles): 1.9% | Stability RE ([1]; Liver, 3000 ng/mL, Long-term (−70 °C, 4 Weeks)): 2.1% | Stability RE ([1]; Liver, 3000 ng/mL, Short-term (25 °C, 24 h)): 6.1% | Stability RE ([1]; Lung, 10 ng/mL, Freeze-thaw Cycles): 2.5% | Stability RE ([1]; Lung, 10 ng/mL, Long-term (−70 °C, 4 Weeks)): 2.9% | Stability RE ([1]; Lung, 10 ng/mL, Short-term (25 °C, 24 h)): 3.3% | Stability RE ([1]; Lung, 200 ng/mL, Freeze-thaw Cycles): 3.1% | Stability RE ([1]; Lung, 200 ng/mL, Long-term (−70 °C, 4 Weeks)): 3.5% | Stability RE ([1]; Lung, 200 ng/mL, Short-term (25 °C, 24 h)): 2.1% | Stability RE ([1]; Lung, 3000 ng/mL, Freeze-thaw Cycles): 7.6% | Stability RE ([1]; Lung, 3000 ng/mL, Long-term (−70 °C, 4 Weeks)): 7.5% | Stability RE ([1]; Lung, 3000 ng/mL, Short-term (25 °C, 24 h)): 1.3% | Stability RE ([1]; Small intestine, 10 ng/mL, Freeze-thaw Cycles): 4.9% | Stability RE ([1]; Small intestine, 10 ng/mL, Long-term (−70 °C, 4 Weeks)): 4.6% | Stability RE ([1]; Small intestine, 10 ng/mL, Short-term (25 °C, 24 h)): 1.3% | Stability RE ([1]; Small intestine, 200 ng/mL, Freeze-thaw Cycles): 3.2% | Stability RE ([1]; Small intestine, 200 ng/mL, Long-term (−70 °C, 4 Weeks)): 3.6% | Stability RE ([1]; Small intestine, 200 ng/mL, Short-term (25 °C, 24 h)): 3.7% | Stability RE ([1]; Small intestine, 3000 ng/mL, Freeze-thaw Cycles): 3.9% | Stability RE ([1]; Small intestine, 3000 ng/mL, Long-term (−70 °C, 4 Weeks)): 3.8% | Stability RE ([1]; Small intestine, 3000 ng/mL, Short-term (25 °C, 24 h)): 5.3% | Stability RE ([1]; Spleen, 10 ng/mL, Freeze-thaw Cycles): 3.6% | Stability RE ([1]; Spleen, 10 ng/mL, Long-term (−70 °C, 4 Weeks)): 3.3% | Stability RE ([1]; Spleen, 10 ng/mL, Short-term (25 °C, 24 h)): 3.7% | Stability RE ([1]; Spleen, 200 ng/mL, Freeze-thaw Cycles): 7.9% | Stability RE ([1]; Spleen, 200 ng/mL, Long-term (−70 °C, 4 Weeks)): 7.1% | Stability RE ([1]; Spleen, 200 ng/mL, Short-term (25 °C, 24 h)): 7.2% | Stability RE ([1]; Spleen, 3000 ng/mL, Freeze-thaw Cycles): 5.6% | Stability RE ([1]; Spleen, 3000 ng/mL, Long-term (−70 °C, 4 Weeks)): 5.7% | Stability RE ([1]; Spleen, 3000 ng/mL, Short-term (25 °C, 24 h)): 5.9% | results of stability experiments (% RE and % RSD) ([1]; plasma, tissue homogenates, urine and feces, 24 h at room temperature, three freeze and thaw cycles, −70 °C for 4 weeks): ≤ 15% | amount in colon until 48 h ([2]; i.m.): 7849 ± 243 ng/mg | highest level in cecum ([2]; i.m.): 63404 ± 407 ng/mg | highest level in jejunum ([2]; i.m.): 12551 ± 432 ng/mg | highest level in large intestine ([2]; i.m.): 17978 ± 116 ng/mg | highest level in lung ([2]; i.m.): 15345 ± 579 ng/mg | highest level in small intestine ([2]; i.m.): 37890 ± 437 ng/mg | amount in colon until 48 h ([2]; i.v.): 3214 ± 177 ng/mg | highest level in cecum ([2]; i.v.): 62457 ± 675 ng/mg | highest level in jejunum ([2]; i.v.): 23543 ± 799 ng/mg | highest level in large intestine ([2]; i.v.): 31241 ± 355 ng/mg | highest level in lung ([2]; i.v.): 39411 ± 357 ng/mg | highest level in small intestine ([2]; i.v.): 26753 ± 690 ng/mg | amount in colon until 48 h ([2]; p.o.): 22114 ± 215 ng/mg | highest level in cecum ([2]; p.o.): 31087 ± 452 ng/mg | highest level in jejunum ([2]; p.o.): 38769 ± 546 ng/mg | highest level in large intestine ([2]; p.o.): 4123 ± 567 ng/mg | highest level in lung ([2]; p.o.): 14685 ± 654 ng/mg | highest level in small intestine ([2]; p.o.): 6743 ± 474 ng/mg
